By IC50 is commonly meant the concentration at which inhibition is half-maximal. Higher therefore signals weaker potency.

Here are results for 18 compounds from patent publication US20260374773A1, “MULTI-CYCLIC IRAK AND FLT3 INHIBITING COMPOUNDS AND USES THEREOF” (CHILDREN'S HOSPITAL MEDICAL CENTER, priority 2022, published 2026).

SMILES strings stand for the structures.

The target of experiment [1] is T1, IRAK4 (Homo sapiens, UniProt Q9NWZ3).
T1 sequence (Q9NWZ3 1-460): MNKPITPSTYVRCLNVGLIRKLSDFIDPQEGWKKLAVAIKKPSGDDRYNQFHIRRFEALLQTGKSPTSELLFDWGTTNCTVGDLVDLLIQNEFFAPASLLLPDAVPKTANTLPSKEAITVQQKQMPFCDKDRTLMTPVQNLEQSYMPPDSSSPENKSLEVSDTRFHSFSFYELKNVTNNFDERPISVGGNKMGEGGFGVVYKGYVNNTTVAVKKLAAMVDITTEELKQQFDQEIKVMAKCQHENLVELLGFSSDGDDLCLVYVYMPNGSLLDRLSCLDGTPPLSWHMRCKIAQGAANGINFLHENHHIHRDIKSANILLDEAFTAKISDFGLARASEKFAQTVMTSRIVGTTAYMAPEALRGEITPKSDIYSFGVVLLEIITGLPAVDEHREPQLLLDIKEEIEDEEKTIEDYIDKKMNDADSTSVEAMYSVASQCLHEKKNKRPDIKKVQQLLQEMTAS
Briefly: NanoBRET target engagement assay in HEK-293 cells, IRAK4. Particulars: live HEK-293 cells, 1 h. The class given is cell-based. The text has this:
The NanoBRET assay measures kinase engagement in real time in the context of the intact cell. Unlike the previously described biochemical kinase assay methodology, the NanoBRET assay measures the binding and activity characteristics under equilibrium conditions using full-length kinases in the presence of cellular concentrations of ATP in live, uncompromised cells. As such, the assay provides a more relevant assessment of kinase potency and selectivity that would be expected to be observed in the native cellular environment, where potency is often considerably lower than that observed in the isolated biochemical assays (Vasta, J. D. et al., (2018) Cell Chem. Biol. 25, 206-214). The assay uses a Kinase-NanoLuc® fusion vector expressing a kinase protein to which a luciferase tag has been added, a cell-permeant fluorescent NanoBRET™ tracer, a NanoLuc® substrate, and an extracellular NanoLuc® inhibitor. Upon expression of the luciferase-tagged kinase, cells will produce a strong BRET signal only in the presence of the NanoBRET™ tracer. The extracellular NanoLuc® inhibitor ensures that the BRET signal observed emanates only from live cells. Because the BRET signal has tight distance constraints, addition of the test compound will decrease the BRET signal if the compound competes with the NanoBRET™ tracer for binding to the kinase domain. Under the appropriate tracer conditions established by the manufacturer, quantitative intracellular affinity and relative potency can then be determined using Mass Action model equations.
HEK-293 cells were purchased from ATCC. FuGENEHD Transfection Reagent, Kinase-NanoLucfusion plasmids, Transfection Carrier DNA, NanoBRETTracers and dilution buffer, NanoBRETNano-Glo Substrate, Extracellular NanoLucInhibitor were obtained from Promega.
Assays were conducted following Promega assay protocol with some modifications. HEK-293 Cells were transiently transfected with Kinase-NanoLucFusion Vector DNA by FuGENEHD Transfection Reagent. Testing compounds were delivered into 384 well assay plate by Echo 550 (LabcyteInc, Sunnyvale, CA). Transfected cells were harvested and mixed with NanoBRETTracer Reagent and dispensed into 384 well plates and incubated at 37 °C in 5% CO2 cell culture incubator for 1 hour. The NanoBRETNano-Glo Substrate plus Extracellular NanoLucInhibitor Solution were added into the wells of the assay plate and incubated for 2-3 minutes at room temperature. The donor emission wavelength (460 nm) and acceptor emission wavelength (600 nm) were measured in the En Visionplate reader. The BRET Ratios were calculated.
BRET Ratio=[(Acceptor sample÷Donor sample)−(Acceptor no-tracer control÷Donor no-tracer control)].
The IC50 values of compounds were calculated with Prism GraphPad program.
• 1). Cultivate HEK-293 cells (70-80% confluence) appropriately prior to assay. Trypsinize and collect HEK-293 cells. • 2). Prepare lipid:DNA complexes as follows: • a. Prepare a 10 μg/ml solution of DNA in Opti-MEM without serum that consists of the following ratios of carrier DNA and DNA encoding NanoLuc® fusion. 9.0 μg/mL of Transfection Carrier DNA, 1.0 μg/mL of NanoLuc fusion vector DNA and 1 mL of Opti-MEM without phenol red. Mix thoroughly. • b. Add 30 μl of FuGENE HD Transfection Reagent into each milliliter of DNA mixture to form lipid:DNA complex. • c. Mix by inversion 10 times. • d. Incubate at ambient temperature for 20 minutes to allow complexes to form. • 3). In a sterile, conical tube, mix 1 part of lipid:DNA complex with 20 parts of HEK-293 cells in suspension. Mix gently by inversion 5 times. • 4). Dispense cells+lipid:DNA complex into a sterile tissue culture dish and incubate for 22-24 hours.
Each test compound is delivered from the compound source plate to the wells of 384-well white NBS plate by Echo 550.
3. Preparation of Cells with NanoBRET™ Tracer Reagent • 1). Remove medium from dish with transfected HEK-293 cells via aspiration, trypsinize and allow cells to dissociate from the dish. • 2). […]

The subject of experiment [2] is MOLM14 F691L cells. Briefly: MOLM14 F691L cell viability (Cell Titer Glo). To be noted: Homo sapiens. The class given is cell-based. The procedure: Both cell lines have activated FLT3 receptors, each of which carry additional resistance mutations in the kinase domain (D835Y and F691L, respectively).
MOLM14 D835Y and MOLM14 F691L cells were grown in RPMI-1640 media supplemented with 20% fetal bovine serum (FBS). For viability/cytotoxicity assessments, cells were seeded into 1536-well white polystyrene tissue culture-treated Greiner plates using a Multidrop Combi dispenser (ThermoFisher), in final volume 5 μL of growth media per well, at a density of 1000 cells per well. After cell addition, 23 nL of test compound were transferred into individual wells (22 doses tested for each test compound, with a 1:2 dilution series starting at 10 μM) via a 1536 pin-tool. Bortezomib (final concentration 2.3 μM) was used as a positive control for cell cytotoxicity. Plates were incubated for 48 hours at standard incubator conditions covered by a stainless steel gasketed lid to prevent evaporation. 48 hours post compound addition, 3 μL of Cell Titer Glo (Promega) were added to each well and plates were incubated at room temperature for 15 minutes with the stainless-steel lid in place. Luminescence readings were taken using a Viewlux imager (PerkinElmer) with a 2 second exposure time per plate.
(In general: ATP-based viability assays read luminescence as a measure of living cells.)

Take `COc1cn2ncc(-c3nc(N[C@H]4CNCC[C@@H]4F)ccc3F)c2nc1C1CC1` [Compound 3, 6-(5-cyclopropyl-6-methoxypyrazolo[1,5-a]pyrimidin-3-yl)-5-fluoro-N-((3S,4S)-4-fluoropiperidin-3-yl)pyridin-2-amine]: the IC50 is under 0.5 nM in experiment [1] (Table 14) and 6 nM in experiment [2] (MOLM-14, Table 16, 48 h).
`COc1cn2ncc(-c3nc(N[C@@H]4CCCNC4)ccc3F)c2nc1C1CC1` [Compound 2, (R)-6-(5-cyclopropyl-6-methoxypyrazolo[1,5-a]pyrimidin-3-yl)-5-fluoro-N-(piperidin-3-yl)pyridin-2-amine]: the IC50 in experiment [2] (MOLM-14, Table 16, 48 h) amounted to 14 nM. In other words, the double-digit nanomolar range.
As for `COc1cn2ncc(-c3nc(N[C@H]4CNC[C@@H]4F)ncc3F)c2nc1C(C)(C)O` [Compound 5a, 2-(3-(5-fluoro-2-(((3S,4S)-4-fluoropyrrolidin-3-yl)amino)pyrimidin-4-yl)-6-methoxypyrazolo[1,5-a]pyrimidin-5-yl)propan-2-ol], the IC50 is 2 nM in experiment [1] (Table 20) and 225 nM in experiment [2] (MOLM-14, Table 22, 48 h).
The compound `COc1cn2ncc(-c3cccc(N[C@H]4CNCC[C@@H]4F)n3)c2nc1C1CC1` [Compound 21, 6-(5-cyclopropyl-6-methoxypyrazolo[1,5-a]pyrimidin-3-yl)-N-((3S,4S)-4-fluoropiperidin-3-yl)pyridin-2-amine] showed an IC50 in experiment [1] (Table 14) of under 0.5 nM.
Turning to `COc1cn2ncc(-c3nc(N[C@H]4CNC[C@@H]4F)c(F)cc3F)c2nc1C(C)(C)O` [Compound 12, 2-(3-(3,5-difluoro-6-(((3S,4S)-4-fluoropyrrolidin-3-yl)amino)pyridin-2-yl)-6-methoxypyrazolo[1,5-a]pyrimidin-5-yl)propan-2-ol], the IC50 in experiment [1] (Table 14) is under 0.5 nM; in experiment [2] (MOLM-14, Table 16, 48 h) it was 449 nM.
`COc1cn2ncc(-c3cncc(N[C@@H]4CCCNC4)n3)c2nc1C1CC1` [Compound 11a, (R)-6-(5-cyclopropyl-6-methoxypyrazolo[1,5-a]pyrimidin-3-yl)-N-(piperidin-3-yl)pyrazin-2-amine]: the IC50 in experiment [1] (Table 20) was under 0.5 nM.
For the compound `COc1cn2ncc(-c3nc(N[C@@H]4CCCNC4)ncc3F)c2nc1C(C)(C)O` [Compound 4a, (R)-2-(3-(5-fluoro-2-(piperidin-3-ylamino)pyrimidin-4-yl)-6-methoxypyrazolo[1,5-a]pyrimidin-5-yl)propan-2-ol], the IC50 in experiment [1] (Table 20) is 3 nM; in experiment [2] (MOLM-14, Table 22, 48 h) it was 101 nM.
Turning to `COc1cn2ncc(-c3nc(N[C@@H]4CCCNC4)ncc3F)c2nc1C1CC1` [Compound 14a, (R)-4-(5-cyclopropyl-6-methoxypyrazolo[1,5-a]pyrimidin-3-yl)-5-fluoro-N-(piperidin-3-yl)pyrimidin-2-amine], the IC50 in experiment [1] (Table 20) was under 0.5 nM.
`COc1cn2ncc(-c3nc(N[C@@H]4CCCNC4)c(C#N)cc3F)c2nc1C(C)(C)O` [Compound 9, (R)-5-fluoro-6-(5-(2-hydroxypropan-2-yl)-6-methoxypyrazolo[1,5-a]pyrimidin-3-yl)-2-(piperidin-3-ylamino)nicotinonitrile] showed an IC50 in experiment [2] (MOLM-14, Table 16, 48 h) of 142 nM.
On to `COc1cn2ncc(-c3ccnc(N[C@H]4CNC[C@@H]4F)n3)c2nc1C1CC1` [Compound 8a, 4-(5-cyclopropyl-6-methoxypyrazolo[1,5-a]pyrimidin-3-yl)-N-((3S,4S)-4-fluoropyrrolidin-3-yl)pyrimidin-2-amine], for which, in experiment [1] (Table 20), it took 0.6 nM to reach half-maximal inhibition (IC50). This lies in the sub-nanomolar range.
For the compound `COc1cn2ncc(-c3nc(N[C@H]4CNCC[C@@H]4F)ncc3F)c2nc1C(C)(C)O` [Compound 6a, 2-(3-(5-fluoro-2-(((3S,4S)-4-fluoropiperidin-3-yl)amino)pyrimidin-4-yl)-6-methoxypyrazolo[1,5-a]pyrimidin-5-yl)propan-2-ol], the IC50 in experiment [1] (Table 20) was under 0.5 nM; in experiment [2] (MOLM-14, Table 22, 48 h), 45 nM.
On to `COc1cn2ncc(-c3nc(N[C@H]4CNCC[C@@H]4F)ncc3F)c2nc1C1CC1` [Compound 15a, 4-(5-cyclopropyl-6-methoxypyrazolo[1,5-a]pyrimidin-3-yl)-5-fluoro-N-((3S,4S)-4-fluoropiperidin-3-yl)pyrimidin-2-amine], for which, in experiment [1] (Table 20), the IC50 was under 0.5 nM.
As for `COc1cn2ncc(-c3ccc(F)c(N[C@@H]4CCCNC4)n3)c2nc1C1CC1` [Compound 5, (R)-6-(5-cyclopropyl-6-methoxypyrazolo[1,5-a]pyrimidin-3-yl)-3-fluoro-N-(piperidin-3-yl)pyridin-2-amine], the IC50 in experiment [1] (Table 14) was 3 nM; in experiment [2] (MOLM-14, Table 16, 48 h), 127 nM.
Consider `COc1cn2ncc(-c3nc(N[C@H]4CNCC[C@@H]4F)c(F)cc3F)c2nc1C1CC1` [Compound 22, 6-(5-cyclopropyl-6-methoxypyrazolo[1,5-a]pyrimidin-3-yl)-3,5-difluoro-N-((3S,4S)-4-fluoropiperidin-3-yl)pyridin-2-amine], for which the IC50 in experiment [1] (Table 14) was under 0.5 nM.
Turning to `COc1cn2ncc(-c3cncc(N[C@H]4CNCC[C@@H]4F)n3)c2nc1C1CC1` [Compound 12a, 6-(5-cyclopropyl-6-methoxypyrazolo[1,5-a]pyrimidin-3-yl)-N-((3S,4S)-4-fluoropiperidin-3-yl)pyrazin-2-amine], the IC50 in experiment [1] (Table 20) was under 0.5 nM.
`COc1cn2ncc(-c3nc(N[C@H]4CNCC[C@@H]4F)c(F)cc3F)c2nc1C(C)(C)O` [Compound 13, 2-(3-(3,5-difluoro-6-(((3S,4S)-4-fluoropiperidin-3-yl)amino)pyridin-2-yl)-6-methoxypyrazolo[1,5-a]pyrimidin-5-yl)propan-2-ol]: the 50% inhibitory concentration (IC50) in experiment [1] (Table 14) is under 0.5 nM; in experiment [2] (MOLM-14, Table 16, 48 h), 113 nM.
In turn, `COc1cn2ncc(-c3ccnc(N[C@H]4CNCC[C@@H]4F)n3)c2nc1C1CC1` [Compound 7a, 4-(5-cyclopropyl-6-methoxypyrazolo[1,5-a]pyrimidin-3-yl)-N-((3S,4S)-4-fluoropiperidin-3-yl)pyrimidin-2-amine] registered an IC50 in experiment [1] (Table 20) of 0.8 nM.
Regarding `COc1cn2ncc(-c3nc(N[C@H]4CNC[C@@H]4F)ncc3F)c2nc1C1CC1` [Compound 13a, 4-(5-cyclopropyl-6-methoxypyrazolo[1,5-a]pyrimidin-3-yl)-5-fluoro-N-((3S,4S)-4-fluoropyrrolidin-3-yl)pyrimidin-2-amine], in experiment [1] (Table 20), the IC50 is under 0.5 nM.
